Source: ChEMBL document CHEMBL5463728, “Data for DCP probe BAY-6096” (2023)
Blank lines part the entries; values can stand above or below the compound they belong to.

Columns and labels:
[1] = target: Estrogen receptor (Homo sapiens) (UniProt P03372); conditions: Compound concentration 10.0 uM
[2] = target: Cannabinoid receptor 2 (Homo sapiens) (UniProt P34972); conditions: Compound concentration 10.0 uM
[3] = target: Prostaglandin G/H synthase 1 (Homo sapiens) (UniProt P23219); assay: Inhibition of Cyclooxygenase COX-1 at compound concentration of 10.0 uM in the Eurofins-Panlabs enzyme assay (Eurofins_assay_116020); conditions: Compound concentration 10.0 uM
[4] = target: Monoamine oxidase A (MAO-A) (Homo sapiens, UniProt P21397); assay: Inhibition of Monoamine Oxidase MAO-A at compound concentration of 10.0 uM in the Eurofins-Panlabs enzyme assay (Eurofins_assay_140010); design: substrate with concentration 50 uM Kynuramine, incubation time 60 min, incubation temperature 37 C; conditions: recombinant human MAO-A expressed in insect Hi5 cells, probe Kynuramine (50 uM), compound concentration 10 uM
[5] = target: Prostaglandin G/H synthase 2 (Homo sapiens) (UniProt P35354); assay: Inhibition of Cyclooxygenase COX-2 at compound concentration of 10.0 uM in the Eurofins-Panlabs enzyme assay (Eurofins_assay_118010); design: substrate with concentration 0.3 uM Arachidonic acid, incubation time 15 min, incubation temperature 37 C; conditions: Compound concentration 10.0 uM
[6] = target: Alpha-1D adrenergic receptor (Homo sapiens, UniProt P25100); assay: Adrenoceptor reporter cell assay (ADRA1D); format: functional
[7] = target: Beta-3 adrenergic receptor (Homo sapiens, UniProt P13945); assay: Adrenoceptor reporter cell assay (ADRB3); format: functional
[8] = target: Delta-type opioid receptor (Homo sapiens) (UniProt P41143); conditions: Compound concentration 10.0 uM
[9] = target: D(1A) dopamine receptor (Homo sapiens) (UniProt P21728); conditions: Compound concentration 10.0 uM
[10] = target: Beta-2 adrenergic receptor (Homo sapiens, UniProt P07550); conditions: Compound concentration 10.0 uM
[11] = target: Phosphodiesterase 3 (Homo sapiens) (UniProt Q14432+Q13370); assay: Inhibition of Phosphodiesterase PDE3 at compound concentration of 10.0 uM in the Eurofins-Panlabs enzyme assay (Eurofins_assay_152000); format: protein assay; design: substrate with concentration 1.01 uM [3H] cAMP + cAMP, incubation time 20 min, incubation temperature 25 C; conditions: Compound concentration 10.0 uM
[12] = target: Gamma-aminobutyric acid type B receptor subunit 1 (Homo sapiens) (UniProt Q9UBS5); conditions: Rattus norvegicus; Compound concentration 10.0 uM
[13] = target: Carbonic anhydrase 2 (Homo sapiens) (UniProt P00918); assay: Inhibition of Carbonic Anhydrase II at compound concentration of 10.0 uM in the Eurofins-Panlabs enzyme assay (Eurofins_assay_112020); design: substrate with concentration; conditions: Compound concentration 10.0 uM
Rattus norvegicus = species on record: Rattus norvegicus; conditions: Compound concentration 10.0 uM
[14] = target: Adenosine receptor A2a (Homo sapiens) (UniProt P29274); conditions: Compound concentration 10.0 uM
[15] = target: Purinergic P2Y (Rattus norvegicus) (UniProt O35811+Q9EPX4+P49651+Q63371+P41232+O35881+Q6GUG4); conditions: Compound concentration 10.0 uM
[16] = target: Endothelin-1 receptor (Homo sapiens) (UniProt P25101); conditions: Compound concentration 10.0 uM
[17] = target: D(3) dopamine receptor (Homo sapiens) (UniProt P35462); conditions: Compound concentration 10.0 uM
[18] = target: T1, GABA-A receptor; anion channel (Rattus norvegicus) (UniProt O09028+P15431+P18506+P18508+P19969+P20236+P23574+P23576+P28471+P28473+P30191+P62813+P63079+P63138+Q91ZM7+Q9ES14); conditions: Compound concentration 10.0 uM
[19] = target: Thromboxane-A synthase (Homo sapiens) (UniProt P24557); assay: Inhibition of Thromboxane Synthase at compound concentration of 10.0 uM in the Eurofins-Panlabs enzyme assay (Eurofins_assay_194020); design: substrate with concentration; conditions: Compound concentration 10.0 uM
[20] = target: Histamine H2 receptor (Homo sapiens) (UniProt P25021); conditions: Compound concentration 10.0 uM
[21] = target: Histamine H1 receptor (Homo sapiens) (UniProt P35367); conditions: Compound concentration 10.0 uM
[22] = target: Histamine H3 receptor (Homo sapiens) (UniProt Q9Y5N1); conditions: Compound concentration 10.0 uM
Sus scrofa = species on record: Sus scrofa; assay: Inhibition of ATPase, Na+/K+, Heart at compound concentration of 10.0 uM in the Eurofins-Panlabs enzyme assay (Eurofins_assay_107710); design: substrate with concentration; conditions: Compound concentration 10.0 uM
[23] = target: 5-hydroxytryptamine receptor 2A (Homo sapiens) (UniProt P28223); conditions: Compound concentration 10.0 uM
[24] = target: Monoamine oxidase B (MAO-B) (Homo sapiens, UniProt P27338); assay: Inhibition of Monoamine Oxidase MAO-B at compound concentration of 10.0 uM in the Eurofins-Panlabs enzyme assay (Eurofins_assay_140120); design: substrate with concentration 50 uM Kynuramine, incubation time 60 min, incubation temperature 37 C; conditions: recombinant human MAO-B expressed in insect Hi5 cells, probe Kynuramine (50 uM), compound concentration 10 uM
[25] = target: 3',5'-cyclic-AMP phosphodiesterase 4D (Homo sapiens) (UniProt Q08499); assay: Inhibition of Phosphodiesterase PDE4D2 at 10 µM in the Eurofins-Panlabs enzyme assay (Eurofins_assay_154420); design: substrate with concentration; conditions: Compound concentration 10.0 uM
[26] = target: Growth hormone secretagogue receptor type 1 (Homo sapiens) (UniProt Q92847); conditions: Compound concentration 10.0 uM
[27] = target: T1, GABA-A receptor; anion channel (Rattus norvegicus); conditions: Compound concentration 10.0 uM; remark: listed apart in the source
[28] = target: Alpha-2B adrenergic receptor (Canis lupus familiaris, UniProt Q2MDQ0); assay: Cell based assay dog (ADRA2B); format: functional
[29] = target: Muscarinic acetylcholine receptor M1 (Homo sapiens) (UniProt P11229); conditions: Compound concentration 10.0 uM
[30] = target: 5-hydroxytryptamine receptor 1A (Homo sapiens, UniProt P08908); assay: GPCRScan assay: inhibition of 5-HT1A; design: radioligand conc. used [nm] 0.5 – 1.0, parental cells stable CHO
Sequence of 5-hydroxytryptamine receptor 1A (P08908 whole entry): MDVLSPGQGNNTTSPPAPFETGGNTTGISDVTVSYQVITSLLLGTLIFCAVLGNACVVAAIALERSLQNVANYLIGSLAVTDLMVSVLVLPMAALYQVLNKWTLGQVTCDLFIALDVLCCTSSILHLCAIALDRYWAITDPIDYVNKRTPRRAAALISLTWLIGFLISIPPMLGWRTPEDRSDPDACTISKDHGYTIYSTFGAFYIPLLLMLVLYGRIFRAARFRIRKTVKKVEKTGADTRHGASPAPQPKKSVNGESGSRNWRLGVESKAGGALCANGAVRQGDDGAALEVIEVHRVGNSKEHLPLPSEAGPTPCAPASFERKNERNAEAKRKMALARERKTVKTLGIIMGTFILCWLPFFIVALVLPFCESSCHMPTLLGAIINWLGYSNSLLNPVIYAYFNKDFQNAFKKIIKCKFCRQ

Sequence of Beta-2 adrenergic receptor (P07550 whole entry, looked up): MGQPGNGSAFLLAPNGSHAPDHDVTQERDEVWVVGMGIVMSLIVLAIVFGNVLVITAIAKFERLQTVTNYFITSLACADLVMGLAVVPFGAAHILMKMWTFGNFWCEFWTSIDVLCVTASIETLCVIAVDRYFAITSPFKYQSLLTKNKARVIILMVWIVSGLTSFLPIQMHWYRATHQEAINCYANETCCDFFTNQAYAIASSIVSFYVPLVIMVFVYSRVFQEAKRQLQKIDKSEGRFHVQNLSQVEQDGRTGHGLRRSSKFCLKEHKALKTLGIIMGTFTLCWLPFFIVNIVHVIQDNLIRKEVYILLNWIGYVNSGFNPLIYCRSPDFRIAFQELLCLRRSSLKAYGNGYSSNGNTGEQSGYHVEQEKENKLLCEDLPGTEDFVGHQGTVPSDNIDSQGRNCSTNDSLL
Sequence of Muscarinic acetylcholine receptor M1 (Homo sapiens) (P11229 whole entry): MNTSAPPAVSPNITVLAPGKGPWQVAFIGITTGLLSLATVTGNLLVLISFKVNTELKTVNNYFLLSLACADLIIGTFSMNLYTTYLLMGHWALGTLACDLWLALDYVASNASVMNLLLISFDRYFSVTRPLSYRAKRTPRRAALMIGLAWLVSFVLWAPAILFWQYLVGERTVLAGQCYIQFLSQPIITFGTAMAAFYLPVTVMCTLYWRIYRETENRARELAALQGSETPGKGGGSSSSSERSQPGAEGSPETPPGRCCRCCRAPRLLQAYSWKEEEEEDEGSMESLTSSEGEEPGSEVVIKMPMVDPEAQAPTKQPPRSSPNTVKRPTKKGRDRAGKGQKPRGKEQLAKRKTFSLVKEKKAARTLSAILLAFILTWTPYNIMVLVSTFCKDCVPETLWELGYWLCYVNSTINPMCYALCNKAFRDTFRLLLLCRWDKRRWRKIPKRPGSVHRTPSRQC
Sequence of 5-hydroxytryptamine receptor 2A (Homo sapiens) (P28223 whole entry): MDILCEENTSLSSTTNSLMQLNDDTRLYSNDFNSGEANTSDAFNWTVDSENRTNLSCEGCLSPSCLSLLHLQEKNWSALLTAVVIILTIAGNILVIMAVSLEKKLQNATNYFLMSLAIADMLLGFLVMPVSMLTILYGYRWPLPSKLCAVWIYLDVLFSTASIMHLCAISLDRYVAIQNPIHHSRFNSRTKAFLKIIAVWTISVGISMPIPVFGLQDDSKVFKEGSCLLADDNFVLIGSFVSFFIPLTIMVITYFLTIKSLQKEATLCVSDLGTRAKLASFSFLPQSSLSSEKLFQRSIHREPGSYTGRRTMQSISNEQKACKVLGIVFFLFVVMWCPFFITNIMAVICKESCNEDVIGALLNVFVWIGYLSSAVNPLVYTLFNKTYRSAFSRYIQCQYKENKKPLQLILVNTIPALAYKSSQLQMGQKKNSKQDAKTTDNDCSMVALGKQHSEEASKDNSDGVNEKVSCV
Sequence of Histamine H2 receptor (Homo sapiens) (P25021 whole entry): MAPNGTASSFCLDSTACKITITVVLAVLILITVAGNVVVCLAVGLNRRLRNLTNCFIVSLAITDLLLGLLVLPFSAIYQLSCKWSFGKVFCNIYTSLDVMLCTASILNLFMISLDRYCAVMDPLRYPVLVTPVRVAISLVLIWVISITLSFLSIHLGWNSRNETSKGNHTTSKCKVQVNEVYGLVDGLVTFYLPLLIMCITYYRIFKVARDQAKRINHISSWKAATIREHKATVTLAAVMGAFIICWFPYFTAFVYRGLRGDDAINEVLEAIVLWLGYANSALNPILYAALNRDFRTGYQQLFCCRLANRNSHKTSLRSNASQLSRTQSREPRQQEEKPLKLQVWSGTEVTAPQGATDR
Sequence of Growth hormone secretagogue receptor type 1 (Homo sapiens) (Q92847 whole entry): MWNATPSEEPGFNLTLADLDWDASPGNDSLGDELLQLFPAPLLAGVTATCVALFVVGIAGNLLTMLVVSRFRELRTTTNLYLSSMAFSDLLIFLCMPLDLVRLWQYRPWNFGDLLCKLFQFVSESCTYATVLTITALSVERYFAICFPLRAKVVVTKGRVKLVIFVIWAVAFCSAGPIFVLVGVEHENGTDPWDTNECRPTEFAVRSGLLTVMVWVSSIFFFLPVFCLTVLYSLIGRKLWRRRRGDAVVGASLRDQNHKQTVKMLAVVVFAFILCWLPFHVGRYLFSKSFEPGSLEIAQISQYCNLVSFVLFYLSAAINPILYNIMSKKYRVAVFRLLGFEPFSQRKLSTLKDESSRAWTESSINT
Sequence of Monoamine oxidase B (MAO-B) (P27338 whole entry): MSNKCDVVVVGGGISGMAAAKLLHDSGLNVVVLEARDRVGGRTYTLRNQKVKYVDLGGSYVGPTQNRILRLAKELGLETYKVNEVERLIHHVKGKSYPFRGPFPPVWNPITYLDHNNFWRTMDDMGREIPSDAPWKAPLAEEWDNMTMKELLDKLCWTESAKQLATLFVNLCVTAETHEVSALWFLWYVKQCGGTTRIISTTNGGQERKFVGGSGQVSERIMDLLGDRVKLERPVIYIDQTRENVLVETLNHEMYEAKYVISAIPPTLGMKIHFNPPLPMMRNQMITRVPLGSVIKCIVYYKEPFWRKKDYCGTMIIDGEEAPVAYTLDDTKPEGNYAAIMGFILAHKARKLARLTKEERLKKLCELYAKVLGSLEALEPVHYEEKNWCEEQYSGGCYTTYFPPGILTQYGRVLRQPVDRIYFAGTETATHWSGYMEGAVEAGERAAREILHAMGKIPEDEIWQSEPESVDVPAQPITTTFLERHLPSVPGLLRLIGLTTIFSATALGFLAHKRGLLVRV
Sequence of Monoamine oxidase A (MAO-A) (P21397 whole entry): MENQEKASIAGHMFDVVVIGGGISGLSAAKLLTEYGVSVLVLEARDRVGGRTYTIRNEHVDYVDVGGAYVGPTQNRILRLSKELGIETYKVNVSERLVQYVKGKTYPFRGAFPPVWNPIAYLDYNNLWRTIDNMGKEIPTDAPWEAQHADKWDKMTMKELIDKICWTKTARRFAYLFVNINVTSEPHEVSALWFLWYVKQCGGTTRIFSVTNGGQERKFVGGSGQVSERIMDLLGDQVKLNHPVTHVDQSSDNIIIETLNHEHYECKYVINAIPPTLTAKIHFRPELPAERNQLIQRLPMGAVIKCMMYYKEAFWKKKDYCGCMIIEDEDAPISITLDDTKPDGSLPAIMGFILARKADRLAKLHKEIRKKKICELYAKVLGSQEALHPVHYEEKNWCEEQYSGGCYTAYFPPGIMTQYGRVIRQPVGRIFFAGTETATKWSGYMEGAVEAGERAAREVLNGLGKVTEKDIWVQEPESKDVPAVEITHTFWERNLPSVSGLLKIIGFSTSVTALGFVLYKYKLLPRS
Sequence of Cannabinoid receptor 2 (Homo sapiens) (P34972 whole entry): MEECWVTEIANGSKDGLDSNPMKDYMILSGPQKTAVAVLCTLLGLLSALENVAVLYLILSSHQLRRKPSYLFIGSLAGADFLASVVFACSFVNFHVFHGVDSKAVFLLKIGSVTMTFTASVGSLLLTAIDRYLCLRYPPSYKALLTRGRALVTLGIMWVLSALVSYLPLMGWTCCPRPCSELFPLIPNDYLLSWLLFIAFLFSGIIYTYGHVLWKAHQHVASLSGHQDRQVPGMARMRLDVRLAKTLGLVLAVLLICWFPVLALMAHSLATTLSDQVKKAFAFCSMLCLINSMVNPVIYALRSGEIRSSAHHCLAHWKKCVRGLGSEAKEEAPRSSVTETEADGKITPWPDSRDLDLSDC
Sequence of Prostaglandin G/H synthase 2 (Homo sapiens) (P35354 whole entry): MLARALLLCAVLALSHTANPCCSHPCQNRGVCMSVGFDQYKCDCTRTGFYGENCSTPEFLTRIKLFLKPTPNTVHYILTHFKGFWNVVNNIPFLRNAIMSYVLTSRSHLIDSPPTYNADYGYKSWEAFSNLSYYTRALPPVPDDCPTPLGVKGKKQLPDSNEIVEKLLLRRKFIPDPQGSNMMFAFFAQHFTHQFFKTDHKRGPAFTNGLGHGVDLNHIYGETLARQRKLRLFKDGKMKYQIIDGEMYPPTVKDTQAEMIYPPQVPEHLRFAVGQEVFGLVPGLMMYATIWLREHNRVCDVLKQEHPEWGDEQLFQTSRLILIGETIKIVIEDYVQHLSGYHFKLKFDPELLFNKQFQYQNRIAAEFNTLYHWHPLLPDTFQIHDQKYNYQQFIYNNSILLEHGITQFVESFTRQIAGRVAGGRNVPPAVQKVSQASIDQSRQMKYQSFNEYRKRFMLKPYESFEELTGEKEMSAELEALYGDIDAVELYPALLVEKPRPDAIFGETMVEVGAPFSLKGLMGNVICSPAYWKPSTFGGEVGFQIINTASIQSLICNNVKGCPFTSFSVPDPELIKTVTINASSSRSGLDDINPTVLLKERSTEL
Sequence of Beta-3 adrenergic receptor (P13945 whole entry): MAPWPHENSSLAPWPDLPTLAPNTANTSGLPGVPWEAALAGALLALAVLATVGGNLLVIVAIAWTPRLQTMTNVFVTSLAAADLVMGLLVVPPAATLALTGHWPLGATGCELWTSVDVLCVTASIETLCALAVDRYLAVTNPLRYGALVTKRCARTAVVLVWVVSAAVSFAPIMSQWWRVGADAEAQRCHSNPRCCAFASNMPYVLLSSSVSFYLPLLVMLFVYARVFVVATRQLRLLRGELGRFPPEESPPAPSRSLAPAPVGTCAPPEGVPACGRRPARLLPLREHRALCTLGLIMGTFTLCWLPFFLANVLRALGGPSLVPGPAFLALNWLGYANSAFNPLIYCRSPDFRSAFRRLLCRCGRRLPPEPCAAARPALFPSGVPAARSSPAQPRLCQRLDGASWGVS

Compound: CNc1cc[n+](CCNC(=O)c2ccn3c(-c4c(C)noc4C)cnc3c2)cc1
inhibition [1]: 6.2% | inhibition [2]: -3.8% | inhibition [3]: -6.3% | inhibition at 60 min, 10 µM [4]: -13.8% (not active) | inhibition [5]: -8.7% | IC50 [6]: > 10 µM (not active) | IC50 [7]: > 10 µM (not active) | inhibition [8]: -5.3% | inhibition [9]: -6.7% | inhibition [10]: -4.49% | inhibition [11]: 3.4% | inhibition [12]: 2.1% | inhibition [13]: 3% | inhibition (Rattus norvegicus): 4.24% | inhibition [14]: -8.3% | inhibition [15]: 10.6% | inhibition [16]: -2.2% | inhibition [17]: -4.7% | inhibition [18]: -1.9% | inhibition [19]: -8.2% | inhibition [20]: -0.4% | inhibition [21]: 0.5% | inhibition [22]: 1.6% | inhibition (Sus scrofa): -2.1% | inhibition [23]: 1% | inhibition at 60 min, 10 µM [24]: 6% (not active) | inhibition [25]: -0.5% | inhibition [26]: 2.3% | inhibition [27]: -3.7%

IC50 [28]: 10 µM (not active) | inhibition [29]: -6.93% | Ki ([30]; read-out: Ki): 0.212 µM | Ki ([30]; read-out: pKi (converted)): 0.182 µM
Compound: Cc1noc(C)c1-c1cnc2cc(C(=O)NCCC[n+]3ccc(N(C)C)cc3)ccn12
